What all share (type): cell-based
Test [1] concerns human dermal fibroblasts (HDFa). Nature of the test: Gene expression profile of human dermal fibroblasts (microarray, GSEA). The conditions noted are these: 0.05 mg/ml, 24 hours. As to the method:
Adult human dermal fibroblasts (HDFa) were seeded (12.5×10^4 cells/vial T25 cm^2), and were incubated in complete medium 106 for 7 days at 37° C. in an atmosphere with 5% CO2. After the incubation, the cells were treated for 24 hours at 37° C. in an atmosphere with 5% CO2 with 0.05 mg/ml of the compound Ac-L-Asp-L-Val-L-Lys-L-Tyr-OH in complete medium 106 or in complete medium 106 as a negative control. The incubations and the treatments were carried out in duplicate for each condition.
After the treatments, RNA was extracted and purified, the quality and quantity was verified and the marking was carried out as was the hybridization of the samples in a human gene expression microarray (ASurePrint G3, Agilent). […] Next an evaluation of the genes by means of GSEA was carried out to encompass these genes according to their function/biological route. 24 hours after the treatments, the cells were lysed and the RNA was extracted and purified from each replica and each condition by means of the RNeasyPlus Mini kit by Qiagen. The lysed cells were briefly homogenized and the RNases were inactivated. The samples were passed through special RNA binding columns and after several microcentrifugation washes to eliminate contaminants and impurities, the purified RNA was eluted with 50 μl of ultrapure water. The purity, integrity and concentration of the RNA obtained were evaluated by means of spectrophotometry (Nanodrop) and with a bioanalyzer (Agilent Bioanalyzer).
The normalized values obtained with the treatment were compared with the normalized values obtained with the negative control to obtain genes with differential expression. […] The values obtained are also evaluated by means of GSEA (Gene Set Analysis Enrichment) to group together the genes with differential expression in terms of Gene Ontology and Biological Routes and the sets of genes with an expected proportion of incorrectly rejected null hypotheses were selected as significant (FDR) <25%. The results obtained are shown below in three different tables in which different families of genes are grouped together (collagen genes, genes involved in collagen synthesis and genes involved in cell adhesion).

A further test has as its system fibulin-5. Put plainly: Immunofluorescence of fibulin-5 protein expression in human dermal fibroblasts. The conditions noted are these: 0.5 mg/mL, 48 hours, HDFa. On the procedure: In this experiment the number of times that the expression of the proteins fibulin-5 and LOXL1 in human dermal fibroblasts is increased with regard to the basal levels in untreated cells (negative control) when treating the cells with 0.5 mg/ml of the product Ac-L-Asp-L-Val-L-Lys-L-Tyr-OH and it is compared with the effect of Interleukin-1β (IL-1β) at 20 ng/ml and TGF-β at 5 ng/ml (positive controls), which increase an average of 1.5 times and 2 times, respectively, the expression of these proteins, in the same conditions.
Adult human dermal fibroblasts were seeded (HDFa) (2.5×10^3 cells/well) in a 96-well transparent plate, treated with polylysine, and were incubated in complete medium 106 for 72 hours at 37° C. in an atmosphere with 5% CO2. After the incubation, the cells were treated with the different compounds in complete medium 106 for 48 hours at 37° C. in an atmosphere with 5% CO2. As positive controls of increase of the expression of the proteins fibulin-5 and LOXL1, 5 ng/ml of TGF-β and 20 ng/ml of IL-1β were used and as a negative control untreated cells were used, just with complete medium 106. The incubations and the treatments were carried out in quadruplicate for each condition. After the treatment, the levels of expression of both proteins were quantified relatively by using specific fluorescent antibodies, photographic recording by microscopy and subsequent quantification of the fluorescent signal using image processing software, the number of total cells by fluorescent staining of the nuclei (DAPI) and subsequent quantification in the same images. For the determination of the expression of the proteins fibulin-5 and LOXL1 the cells were washed with PBS 48 hours after the treatments and were fixed with paraformaldehyde. Next, duplicates of each treatment were used to mark separately the fibulin-5 and LOXL1 proteins. For each of the proteins a specific primary monoclonal antibody was used (Abcam). After the primary incubation, the cells were washed with PBS and the secondary marking was carried out with specific fluorescent polyclonal antibodies for each primary antibody. For fibulin-5 an Alexa Fluor® 594 (red) secondary antibody was used and for LOXL1 an Alexa Fluor® 488 (green) secondary antibody was used. 16 hours later all the samples were stained with DAPI (4′,6-Diamidino-2-Phenylindole), fluorescent marker for the staining of nuclei, and the photographic recording was carried out by fluorescence microscopy in a Leica microscope. 2-4 images were taken per condition and per protein and the fluorescent signals were quantified (IOD) corresponding to each protein and the nuclei by means of image analysis software. The fibulin-5 and LOXL1 signals were normalized according to the number of total nuclei for each image. 3 independent assays were carried out.

The test system of a further test is type-I collagen. Nature of the test: Type-I collagen synthesis in human dermal fibroblasts (ELISA). The conditions noted are these: 0.01 μg/ml, 48 hours, vs negative control. As to the method: Stimulation of type-I collagen synthesis induced by cosmetic active ingredients was assessed by means of an ELISA (Enzyme-Linked Immunosorbent Assay) method.
Human dermal fibroblasts were trypsinized and seeded at a density of 5×10^4 cells/well in 48-well plates. After 24 hours of incubation at 37° C., 5% CO2, with a humidified atmosphere, a new medium was added with 0.01 μg/mL Ac-L-Asp-L-Val-L-Lys-L-Tyr-OH. Untreated cells were used as negative controls. The cells were incubated for an additional 48 hours at 37° C., 5% CO2, with humidified atmosphere. Subsequently, the medium was collected from each well to be analyzed by ELISA. A calibration curve with type-I collagen was prepared (Sigma) and the dilutions of this calibration curve were transferred to 96-well plates together with the mediums collected from the cells. The plates were left at 4° C. in a humid atmosphere for one night. Next the wells were washed three times with a washing solution prepared with PBS at 0.05% of Tween-20 (Sigma) and then any non-specific binding of the primary antibody with a solution of PBS at 3% BSA (sigma) was blocked. […] The reaction was stopped adding a solution of H2SO4 3 M and the absorbency reading was carried out at a wave length of 490 nm in a TECAN GENios spectrophotometric reader. […]
For orientation: ELISA stands for enzyme-linked immunosorbent assay.

Several values for one entry are separate records, joined by “and”; a condition that tells them apart may be missing. Equal entries are not always repeated.

For “Ac-L-Asp-L-Val-L-Lys-L-Tyr-OH (Ac-DVKY-OH)”, the “% Expression induction” value in test [1] (ACTN1 (Actinin, alpha 1)) is 27.4%; in test [1] (CAPNS1 (Calpain, small subunit 1)) it was 22.1%; in test [1] (CAPNS2 (Calpain, small subunit 2)), 17.9%; in test [1] (COL1A2 (Collagen, type-I, alpha 2)), 31.1%; in test [1] (COL4A1 (Collagen, type-IV, alpha 1)), 18.9%; in test [1] (COL4A2 (Collagen, type-IV, alpha 2)), 8.3%. The “% Expression induction” value is given as 16.0% in test [1] (COL6A2 (Collagen, type-VI, alpha 2)); 18.6% in test [1] (COL6A3 (Collagen, type-VI, alpha 3)); 7.2% in test [1] (COL11A1 (Collagen, type-XI, alpha 1)); 36.1% in test [1] (COL14A1 (Collagen, type-XIV, alpha 1)); 7.7% in test [1] (COL22A1 (Collagen, type-XXII, alpha 1)); 14.2% in test [1] (COL27A1 (Collagen, type-XXVII, alpha 1)). The “% Expression induction” value came to 30.1% in test [1] (GSN (Gelsolin)); 33.0% in test [1] (ITGB1 (Integrin, beta 1)); 22.4% in test [1] (PCOLCE (Procollagen C-endopeptidase enhancer)); 36.8% in test [1] (PFN1 (Profilin 1)); 20.7% in test [1] (PLOD3 (Procollagen-lysine, 2-oxoglutarate 5-dioxygenase 3)); 22.7% in test [1] (ROCK1 (Rho-associated, coiled-coil containing protein kinase 1)). The “% Expression induction” value in test [1] (SERPINH1 (heat shock protein 47)) is 25.3%; in test [1] (TLN1 (Talin 1)), 27.5%; in test [1] (VCL (Vinculin)) it was 4.2%; in test [1] (ZYX (Zyxin)) it was 35.7%. The “Increase in the expression of the protein fibulin-5 with regard to the negative control” value in the test with fibulin-5 was 134% and 133.90%. Besides, the “INCREASE IN SYNTHESIS OF TYPE-I COLLAGEN” value with type-I collagen is 47.3%.

Values taken from patent publication US9458194B2, “Compounds useful in the treatment and/or care of the skin and their cosmetic or pharmaceutical compositions” (Lubrizol Advanced Materials, Inc., priority 2013, dated 2016).
